No end group written: not given here.

This series has as its system SK-N-SH human neuroblastoma cells. As to the kind of experiment: MTT toxicity assay. As to conditions: four day MTT cytotoxicity assay. A general note: Tetrazolium dyes change colour on reduction, which living cells bring about.

In the case of GKLVFFA-NH2 [GKLVFFA], the “concentration at which toxicity was exhibited in MTT assay” value was 100 µM.

The values above are taken from patent US9364449B2, “Peptoid and synthetic oligomers, pharmaceutical compositions and methods of using same” (New York University, priority 2011, dated 2016).
